In brackets after ≈: the same amount, converted by molar mass.
Key:
Format in all cases: functional
Pseudomonas aeruginosa [1] = experiment: Antibacterial activity against Pseudomonas aeruginosa PAO1 harboring acquired beta-lactamase OXA-144 by broth microdilution method
Pseudomonas aeruginosa [2] = experiment: Antibacterial activity against Pseudomonas aeruginosa PAO1 by broth microdilution method
Pseudomonas aeruginosa [3] = experiment: Antibacterial activity against Pseudomonas aeruginosa assessed as percent nonsusceptible isolates by broth microdilution assay
Pseudomonas aeruginosa [4] = experiment: Antibacterial activity against Pseudomonas aeruginosa PAO1 harboring acquired beta-lactamase OXA-2 by broth microdilution method
Pseudomonas aeruginosa [5] = experiment: Antibacterial activity against carbapenem-resistant Pseudomonas aeruginosa isolate 3C1 VAL6 by broth microdilution method
Pseudomonas aeruginosa [6] = experiment: Antibacterial activity against carbapenem-resistant Pseudomonas aeruginosa isolate 1E3 PpA2 harboring acquired beta-lactamase OXA-101 by broth microdilution method
Pseudomonas aeruginosa [7] = experiment: Antibacterial activity against carbapenem-resistant Pseudomonas aeruginosa isolate 3D2 GM2 harboring acquired beta-lactamase BEL-3 by broth microdilution method
Pseudomonas aeruginosa [8] = experiment: Antibacterial activity against carbapenem-resistant Pseudomonas aeruginosa isolate 1E2 PpA1 harboring acquired beta-lactamase OXA-144 by broth microdilution method
Pseudomonas aeruginosa [9] = experiment: Antibacterial activity against carbapenem-resistant Pseudomonas aeruginosa isolate 1B2 RCA2 harboring acquired beta-lactamase PER-1 by broth microdilution method
Pseudomonas aeruginosa [10] = experiment: Antibacterial activity against carbapenem-resistant Pseudomonas aeruginosa isolate 3C8 GM1 harboring acquired beta-lactamase OXA-144 by broth microdilution method
Pseudomonas aeruginosa [11] = experiment: Antibacterial activity against carbapenem-resistant Pseudomonas aeruginosa isolate 1C2 PTOL1 harboring beta-lactamase OXA-17 by broth microdilution method
Pseudomonas aeruginosa [12] = experiment: Antibacterial activity against carbapenem-resistant Pseudomonas aeruginosa isolate 3C9 GM1 harboring acquired beta-lactamase OXA-144 by broth microdilution method
Pseudomonas aeruginosa [13] = experiment: Antibacterial activity against carbapenem-resistant Pseudomonas aeruginosa isolate 1D5 SA1 harboring acquired beta-lactamase VIM-2 by broth microdilution method
Pseudomonas aeruginosa [14] = experiment: Antibacterial activity against carbapenem-resistant Pseudomonas aeruginosa isolate 1C3 PTOL1 harboring acquired beta-lactamase OXA-17 by broth microdilution method
Pseudomonas aeruginosa [15] = experiment: Antibacterial activity against carbapenem-resistant Pseudomonas aeruginosa isolate 1E1 PpA1 harboring acquired beta-lactamase OXA-144 by broth microdilution method

Structure (SMILES)	MIC (Pseudomonas aeruginosa [1]) [µg/mL]	MIC (Pseudomonas aeruginosa [2]) [µg/mL]	Activity (Pseudomonas aeruginosa [3]) [%]	MIC (Pseudomonas aeruginosa [4]) [µg/mL]	MIC (Pseudomonas aeruginosa [5]) [µg/mL]	MIC (Pseudomonas aeruginosa [6]) [µg/mL]	MIC (Pseudomonas aeruginosa [7]) [µg/mL]	MIC (Pseudomonas aeruginosa [8]) [µg/mL]	MIC (Pseudomonas aeruginosa [9]) [µg/mL]	MIC (Pseudomonas aeruginosa [10]) [µg/mL]	MIC (Pseudomonas aeruginosa [11]) [µg/mL]	MIC (Pseudomonas aeruginosa [12]) [µg/mL]	MIC (Pseudomonas aeruginosa [13]) [µg/mL]	MIC (Pseudomonas aeruginosa [14]) [µg/mL]	MIC (Pseudomonas aeruginosa [15]) [µg/mL]
CCN1CCN(C(=O)N[C@@H](C(=O)N[C@@H]2C(=O)N3[C@@H]2SC(C)(C)[C@@H]3C(=O)O)c2ccccc2)C(=O)C1=O [PIPERACILLIN]	16 (≈ 30.9 µM)	4 (≈ 7.73 µM)	28.4	32 (≈ 61.8 µM)	–	–	–	–	–	–	–	–	–	–	–
NC[C@H]1O[C@H](O[C@H]2[C@H](O)[C@@H](O[C@H]3O[C@H](CO)[C@@H](O)[C@H](N)[C@H]3O)[C@H](N)C[C@@H]2N)[C@H](N)C[C@@H]1O [TOBRAMYCIN]	–	–	33.9	–	< 0.12	> 64	8 (≈ 17.1 µM)	64 (≈ 137 µM)	< 0.12	16 (≈ 34.2 µM)	32 (≈ 68.4 µM)	16 (≈ 34.2 µM)	64 (≈ 137 µM)	64 (≈ 137 µM)	64 (≈ 137 µM)
NCC[C@H](O)C(=O)N[C@@H]1C[C@H](N)[C@@H](O[C@H]2O[C@H](CN)[C@@H](O)[C@H](O)[C@H]2O)[C@H](O)[C@H]1O[C@H]1O[C@H](CO)[C@@H](O)[C@H](N)[C@H]1O [AMIKACIN]	–	–	18.6	–	2 (≈ 3.42 µM)	32 (≈ 54.6 µM)	8 (≈ 13.7 µM)	32 (≈ 54.6 µM)	1 (≈ 1.71 µM)	4 (≈ 6.83 µM)	32 (≈ 54.6 µM)	4 (≈ 6.83 µM)	16 (≈ 27.3 µM)	32 (≈ 54.6 µM)	16 (≈ 27.3 µM)
C[C@@H](O)[C@H]1C(=O)N2C(C(=O)O)=C(S[C@@H]3CN[C@H](C(=O)N(C)C)C3)[C@H](C)[C@H]12 [MEROPENEM]	0.5 (≈ 1.3 µM)	0.25 (≈ 0.652 µM)	52.1	0.5 (≈ 1.3 µM)	4 (≈ 10.4 µM)	–	4 (≈ 10.4 µM)	32 (≈ 83.4 µM)	16 (≈ 41.7 µM)	4 (≈ 10.4 µM)	–	4 (≈ 10.4 µM)	16 (≈ 41.7 µM)	–	16 (≈ 41.7 µM)
CO/N=C(\C(=O)N[C@@H]1C(=O)N2C(C(=O)[O-])=C(C[N+]3(C)CCCC3)CS[C@H]12)c1csc(N)n1	8 (≈ 16.6 µM)	1 (≈ 2.08 µM)	68.2	2 (≈ 4.16 µM)	64 (≈ 133 µM)	> 64	32 (≈ 66.6 µM)	32 (≈ 66.6 µM)	–	4 (≈ 8.32 µM)	> 64	4 (≈ 8.32 µM)	16 (≈ 33.3 µM)	> 64	16 (≈ 33.3 µM)

Reference: ChEMBL document CHEMBL1240358, “Activity of a new antipseudomonal cephalosporin, CXA-101 (FR264205), against carbapenem-resistant and multidrug-resistant Pseudomonas aeruginosa clinical strains” (2010)
